Measurements taken from patent US7964628B2, “Fibrinogen receptor antagonists and their use” (Piramal Life Sciences Limited, priority 2003, dated 2011).
Structures can show the parent of a compound that is named as a salt.

Compared with CCOC(=O)C(CCNC(=O)OCc1ccccc1)Oc1ccc(C(=O)CN2Cc3cc(C(=N)NO)ccc3C2=O)cc1 (stereo not drawn) [Example 28, 4-Benzyloxycarbonylamino-2-(4-{2-[5-(N-hydroxycarbamimidoyl)-1-oxo-1,3-dihydro-isoindol-2-yl]-acetyl}-phenoxy)-butyric acid ethyl ester], CCOC(=O)C(CCNC(=O)OCc1ccccc1)Oc1ccc(C(=O)CN2Cc3cc(C(=N)N)ccc3C2=O)cc1 (stereo not drawn) (as salt: salt) [Example 27, 4-Benzyloxycarbonylamino-2-(4-{2-[5-carbamimidoyl-1-oxo-1,3-dihydro-isoindol-2-yl]-acetyl}-phenoxy)-butyric acid ethyl ester] is lower in melting point: 174 to 175 °C for the first, 164 to 165 °C for the second.

First: CCOC(=O)CN1CCN(C(=O)CN2Cc3cc(C(=N)N)ccc3C2=O)CC1 (as salt: salt) [Example 66, (4-{2-[5-Carbamimidoyl-1-oxo-1,3-dihydro-isoindol-2-yl]-acetyl}-piperazine-1-yl)-acetic acid ethyl ester]
Second: CCOC(=O)COC1CCN(C(=O)CN2Cc3cc(C(=N)NC(=O)OC(C)(C)C)ccc3C2=O)CC1 (hydrate or solvate) [Example 72, (1-{2-[5-(tert-Butoxycarbonylamino-imino-methyl)-1-oxo-1,3-dihydro-isoindol-2-yl]-acetyl}-piperidin-4-yloxy)-acetic acid ethyl ester]
The melting point of the first is higher: 211 to 212 °C for the first, 83 to 85 °C for the second.

Compared with Cc1c(OCC(=O)OCc2ccccc2)ccc(C(=O)CN2Cc3cc(C(=N)NO)ccc3C2=O)c1O (hydrate or solvate) [Example 56, (3-Hydroxy-4-{2-[5-(N-hydroxycarbamimidoyl)-1-oxo-1,3-dihydro-isoindol-2-yl]-acetyl}-2-methyl-phenoxy)-acetic acid benzyl ester], N=C(NO)c1ccc2c(c1)CN(CC(=O)c1ccc(OCC(=O)OCc3ccccc3)cc1O)C2=O [Example 43, (3-Hydroxy-4-{2-[5-(N-hydroxycarbamimidoyl)-1-oxo-1,3-dihydro-isoindol-2-yl]-acetyl}-phenoxy)-acetic acid benzyl ester] is lower in melting point: 200 °C for the first, 183 to 184 °C for the second.

Compared with CCOC(=O)COc1ccc(C(=O)CN2Cc3cc(C(=N)NO)ccc3C2=O)cc1OCC(=O)OCC [Example 21, (2-Ethoxycarbonylmethoxy-4-{2-[5-(N-hydroxycarbamimidoyl)-1-oxo-1,3-dihydro-isoindol-2-yl]-acetyl}-phenoxy)-acetic acid ethyl ester], CCOC(=O)COc1ccc(C(=O)CN2Cc3cc(C(=N)NO)ccc3C2=O)c(O)c1CC [Example 57, (2-Ethyl-3-hydroxy-4-{2-[5-(N-hydroxycarbamimidoyl)-1-oxo-1,3-dihydro-isoindol-2-yl]-acetyl}-phenoxy)-acetic acid ethyl ester] is higher in melting point: 163 to 164 °C for the first, 196 to 197 °C for the second.

First: COC(=O)COc1ccc(C(=O)CN2Cc3cc(C(=N)N)ccc3C2=O)cc1 (as salt: salt) [Example 1, (4-{2-[5-Carbamimidoyl-1-oxo-1,3-dihydro-isoindol-2-yl]-acetyl}-phenoxy)-acetic acid methyl ester]
Second: COC(=O)NC(=N)c1ccc2c(c1)CN(CC(=O)c1ccc(OCC(=O)OC(C)C)cc1)C2=O [Example 6, (4-{2-[5-(Imino-methoxycarbonylamino-methyl)-1-oxo-1,3-dihydro-isoindol-2-yl]-acetyl}-phenoxy)-acetic acid isopropyl ester]
The melting point of the first is lower: 181 to 182 °C for the first, 183 to 184 °C for the second.

First: CC(C)COC(=O)COc1ccc(C(=O)CN2Cc3cc(C(=N)NS(C)(=O)=O)ccc3C2=O)cc1 [Example 14, (4-{2-[5-(Imino-methanesulfonylamino-methyl)-1-oxo-1,3-dihydro-isoindol-2-yl]-acetyl}-phenoxy)-acetic acid isobutyl ester]
Second: CC(C)COC(=O)COc1ccc(C(=O)CN2Cc3cc(C(=N)NC(=O)OCC(C)C)ccc3C2=O)cc1 (hydrate or solvate) [Example 12, (4-{2-[5-(Imino-isobutoxycarbonylamino-methyl)-1-oxo-1,3-dihydro-isoindol-2-yl]-acetyl}-phenoxy)-acetic acid isobutyl ester]
The melting point of the first is higher: 177 to 178 °C for the first, 140 to 141 °C for the second.

First: CCOC(=O)COc1cc(O)c(C(=O)CN2Cc3cc(C(=N)NO)ccc3C2=O)cc1C(C)(C)C [Example 52, (2-tert-Butyl-5-hydroxy-4-{2-[5-(N-hydroxycarbamimidoyl)-1-oxo-1,3-dihydro-isoindol-2-yl]-acetyl}-phenoxy)-acetic acid ethyl ester]
Second: CCOC(=O)COc1cc(O)c(C(=O)CN2Cc3cc(C(=N)NO)ccc3C2=O)cc1C(C)C [Example 51, (5-Hydroxy-4-{2-[5-(N-hydroxycarbamimidoyl)-1-oxo-1,3-dihydro-isoindol-2-yl]-acetyl}-2-isopropyl-phenoxy)-acetic acid ethyl ester]
The melting point of the first is lower: 177 to 178 °C for the first, 207 to 209 °C for the second.

First: CC(C)COC(=O)NC(=N)c1ccc2c(c1)CN(CC(=O)c1ccc(OCC(=O)OC(C)C)cc1)C2=O (hydrate or solvate) [Example 7, (4-{2-[5-(Imino-isobutoxycarbonylamino-methyl)-1-oxo-1,3-dihydro-isoindol-2-yl]-acetyl}-phenoxy)-acetic acid isopropyl ester]
Second: C=CCOc1cc(OCC(=O)OCC)ccc1C(=O)CN1Cc2cc(C(=N)NO)ccc2C1=O (hydrate or solvate) [Example 83, (3-Allyloxy-4-{2-[5-(N-hydroxycarbamimidoyl)-1-oxo-1,3-dihydro-isoindol-2-yl]-acetyl}-phenoxy)-acetic acid ethyl ester]
The melting point of the first is lower: 155 to 157 °C for the first, 182 to 183 °C for the second.

First: CCOC(=O)COc1ccc(C(=O)CN2Cc3cc(C(=N)N)ccc3C2=O)c(OCC)c1 [Example 76, (4-{2-[5-carbamimidoyl-1-oxo-1,3-dihydro-isoindol-2-yl]-acetyl}-3-ethoxy-phenoxy)-acetic acid ethyl ester]
Second: CCOC(=O)COc1ccc(C(=O)CN2Cc3cc(C(=N)N)ccc3C2=O)c(O)c1 (as salt: salt) [Example 41, (4-{2-[5-Carbamimidoyl-1-oxo-1,3-dihydro-isoindol-2-yl]-acetyl}-3-hydroxy-phenoxy)-acetic acid ethyl ester]
The melting point of the first is higher: 202 to 203 °C for the first, 195 to 196 °C for the second.

CCOC(=O)COc1cc(O)c(C(=O)CN2Cc3cc(C(=N)NO)ccc3C2=O)cc1CC [Example 50, (2-Ethyl-5-hydroxy-4-{2-[5-(N-hydroxycarbamimidoyl)-1-oxo-1,3-dihydro-isoindol-2-yl]-acetyl}-phenoxy)-acetic acid ethyl ester] gave a melting point of 218 to 219 °C.

For N=C(N)c1ccc2c(c1)CN(CC(=O)c1ccc(OCC(=O)O)cc1)C2=O (as salt: hydrochloride) (hydrate or solvate) [Example 17, (4-{2-[5-Carbamimidoyl-1-oxo-1,3-dihydro-isoindol-2-yl]-acetyl}-phenoxy)-acetic acid], the melting point was > 250 °C (dec.).
For N=C(N)c1ccc2c(c1)CN(CC(=O)c1ccc(OCC(=O)OCc3ccccc3)cc1)C2=O (as salt: salt) (hydrate or solvate) [Example 16, (4-{2-[5-Carbamimidoyl-1-oxo-1,3-dihydro-isoindol-2-yl]-acetyl}-phenoxy)-acetic acid benzyl ester], the melting point was 190 °C (dec.).
